Data reported in the supplement of paper PMC10307832.

Columns and labels:
Test in all cases: relative viability (nuclei count vs DMSO), 5 days (fraction); higher = more cells survive
YM155 + Palbociclib = compound: COCC[n+]1c2c(n(Cc3cnccn3)c1C)C(=O)c1ccccc1C2=O [YM155] + CC(=O)c1c(C)c2cnc(Nc3ccc(N4CCNCC4)cn3)nc2n(C2CCCC2)c1=O [Palbociclib] (partner 0.5 µM)
Outline: (§1)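 Relative viability was taken as the ratio of nuclei in treated wells to nuclei in vehicle wells. Lung cancer cell lines in 1536-well plates received compounds by pin tool one day after seeding, either one drug alone or a fixed anchor-drug dose plus five library-drug doses (not always all listed) in √10 steps. Nuclei were counted on 4× images after 5 days of treatment, and values are medians of duplicate plates.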

YM155 + Decitabine = compound: COCC[n+]1c2c(n(Cc3cnccn3)c1C)C(=O)c1ccccc1C2=O [YM155] + Nc1ncn([C@H]2C[C@H](O)[C@@H](CO)O2)c(=O)n1 [Decitabine] (partner 2 µM)
Outline: as §1

Quizartinib + Crizotinib = compound: CC(C)(C)c1cc(NC(=O)Nc2ccc(-c3cn4c(n3)sc3cc(OCCN5CCOCC5)ccc34)cc2)no1 [Quizartinib] + C[C@@H](Oc1cc(-c2cnn(C3CCNCC3)c2)cnc1N)c1c(Cl)ccc(F)c1Cl [Crizotinib] (partner 1 µM)
Outline: as §1

Quizartinib + Linsitinib = compound: CC(C)(C)c1cc(NC(=O)Nc2ccc(-c3cn4c(n3)sc3cc(OCCN5CCOCC5)ccc34)cc2)no1 [Quizartinib] + C[C@]1(O)C[C@@H](c2nc(-c3ccc4ccc(-c5ccccc5)nc4c3)c3c(N)nccn32)C1 [Linsitinib] (partner 1 µM)
Outline: as §1

| Cell Line | relative viability (YM155 + Palbociclib; first compound 0.002 µM) | relative viability (YM155 + Palbociclib; first compound 0.006325 µM) | relative viability (YM155 + Palbociclib; first compound 0.02 µM) | relative viability (YM155 + Palbociclib; first compound 0.06325 µM) | relative viability (YM155 + Decitabine; first compound 0.002 µM) | relative viability (YM155 + Decitabine; first compound 0.006325 µM) | relative viability (YM155 + Decitabine; first compound 0.02 µM) | relative viability (YM155 + Decitabine; first compound 0.06325 µM) | relative viability (Quizartinib + Crizotinib; first compound 0.001 µM) | relative viability (Quizartinib + Crizotinib; first compound 0.003162 µM) | relative viability (Quizartinib + Crizotinib; first compound 0.01 µM) | relative viability (Quizartinib + Crizotinib; first compound 0.03162 µM) | relative viability (Quizartinib + Crizotinib; first compound 0.1 µM) | relative viability (Quizartinib + Linsitinib; first compound 0.001 µM) | relative viability (Quizartinib + Linsitinib; first compound 0.003162 µM) | relative viability (Quizartinib + Linsitinib; first compound 0.01 µM) | relative viability (Quizartinib + Linsitinib; first compound 0.03162 µM) | relative viability (Quizartinib + Linsitinib; first compound 0.1 µM) |
| --- | --- | --- | --- | --- | --- | --- | --- | --- | --- | --- | --- | --- | --- | --- | --- | --- | --- | --- |
| LCLC-103H | 0.472 | 0.471 | 0.491 | 0.499 | 0.747 | 0.735 | 0.731 | 0.716 | 0.784 | 1.16 | 0.992 | 1.05 | 1.02 | 0.946 | 1.05 | 1.06 | 1.2 | 0.882 |
| NCI-H1650 | 0.229 | 0.347 | 0.286 | 0.216 | 0.382 | 0.384 | 0.452 | 0.203 | 0.891 | 0.957 | 1.23 |  | 0.881 |  |  |  |  |  |
| SW 1573 | 0.415 | 0.314 | 0.126 | 0.0609 | 0.369 | 0.461 | 0.243 | 0.136 | 0.611 | 0.837 | 0.823 | 0.803 | 0.895 | 0.738 | 0.691 | 0.81 | 0.642 | 0.8 |
| NCI-H1703 |  |  |  |  |  |  |  |  | 0.791 | 0.718 | 0.219 | 0.136 | 0.335 | 0.832 | 0.456 | 0.165 | 0.162 | 0.231 |
| NCI-H2087 | 0.207 | 0.247 | 0.256 | 0.208 | 0.37 | 0.282 | 0.245 | 0.293 | 0.717 | 0.685 | 0.883 | 0.767 | 0.863 | 0.857 | 0.98 | 1.06 | 0.935 | 0.705 |
| Calu-6 |  |  |  |  |  |  |  |  | 0.719 | 0.714 | 0.814 | 0.621 | 0.752 | 0.975 | 0.884 | 0.944 | 0.959 | 0.883 |
